Results: article PMC6934184, “Selective DNA-PKcs inhibition extends the therapeutic index of localized radiotherapy and chemotherapy” (The Journal of Clinical Investigation, 2019)

Target: T1, NLK (Homo sapiens, UniProt Q9UBE8)
T1 construct: purchased Thermo Fisher Scientific (Life Technologies) SelectScreen
Test: SelectScreen LanthaScreen
Format: binding
Settings: read-out: % displacement
Experimental: The in vitro kinase selectivity of NU5455 was determined using the SelectScreen Broad Assay Panel (Thermo Fisher Scientific) involving activity and binding assays (Supplemental Table 1). […] Class IA PI3Ks were measured using the p85α subunit.
Kinase [ATP] % Assay Kinase [ATP] % Assay Kinase [ATP] % Assay Kinase [ATP] % Assay
DNA-PK Km app 98.3 Z LATS2 n/a 4.7 L KIT D820E n/a 1.3 L GSK3B (GSK3 beta) Km app -2.5 Z
PIK3C3 (hVPS34) Km app 85.9 A PRKCZ (PKC zeta) Km app 4.7 Z GRK1 n/a 1.3 L BMPR2 n/a -2.5 L
PIK3C2B (PI3K-C2 beta) 10 28.9 A FGFR1 Km app 4.7 Z BRSK2 n/a 1.2 L CDC42 BPB (MRCKB) Km app -2.5 Z
SNF1LK2 Km app 26.6 Z MINK1 Km app 4.6 Z NUAK1 (ARK5) Km app 1.2 A AMPK (A2/B2/G2) n/a -2.6 L
HCK Km app 18.0 Z CSF1R (FMS) Km app 4.3 Z CDK9/cyclin K n/a 1.0 L PRKG1 Km app -2.7 Z
NEK2 Km app 17.8 Z CSNK1G3 (CK1 gamma 3) Km app 4.2 Z NUAK2 n/a 1.0 L KIT T670E n/a -2.8 L
ALK Km app 17.3 Z STK32C (YANK3) n/a 4.2 L CDK2/cyclin O n/a 0.9 L ERBB4 (HER4) Km app -2.8 Z
FGFR3 K650M n/a 16.5 L STK22D (TSSK1) Km app 4.2 Z CAMKK2 (CaMKK beta) n/a 0.9 L PLK4 n/a -2.8 L
SIK3 n/a 16.1 L TAOK3 (JIK) n/a 4.2 L FGFR3 Km app 0.9 Z GRK7 Km app -3.0 Z
LYN A Km app 15.2 Z RPS6KA4 (MSK2) Km app 4.2 Z ULK2 n/a 0.9 L MAPKAPK2 Km app -3.1 Z
BMPR1B (ALK6) n/a 14.5 L PTK2B (FAK2) Km app 4.2 Z KIT D816V n/a 0.9 L FGFR4 Km app -3.1 Z
INSRR (IRR) Km app 14.1 Z CLK2 Km app 4.1 Z CAMK1 (CaMK1) 10 0.8 A CASK n/a -3.1 L
PLK2 Km app 14.1 Z STK24 (MST3) Km app 4.1 Z PTK6 (Brk) Km app 0.7 Z GRK5 Km app -3.2 Z
PRKACA (PKA) Km app 14.0 Z CAMK1D (CaMKI delta) Km app 4.1 Z CAMK2B (CaMKII beta) Km app 0.7 Z EGFR (ErbB1) T790M Km app -3.3 Z
EIF2AK2 (PKR) n/a 13.3 L INSR Km app 4.1 Z ACVR1 (ALK2) n/a 0.7 L PAK4 Km app -3.3 Z
PRKX Km app 12.5 Z IRAK1 Km app 4.0 A ABL1 H396P n/a 0.6 L DAPK3 (ZIPK) Km app -3.4 Z
FGR Km app 12.1 Z SRC N1 Km app 3.9 Z MERTK (cMER) A708S n/a 0.6 L RET M918T n/a -3.5 L
CLK1 Km app 11.7 Z SRPK2 Km app 3.9 Z MAPKAPK5 (PRAK) Km app 0.6 Z PRKCQ (PKC theta) Km app -3.7 Z
MARK3 Km app 11.4 Z RPS6KA6 (RSK4) Km app 3.8 Z AKT1 (PKB alpha) Km app 0.5 Z CAMKK1 (CAMKKA) n/a -3.8 L
PDGFRB (PDGFR beta) Km app 11.0 Z GRK6 Km app 3.7 Z NTRK3 (TRKC) Km app 0.4 Z FLT3 D835Y Km app -3.9 Z
PRKCN (PKD3) Km app 10.7 Z PKN1 (PRK1) Km app 3.6 Z ZAP70 Km app 0.3 Z ROCK2 Km app -4.1 Z
STK16 (PKL12) n/a 10.5 L MAP3K8 (COT) 100 3.5 Z CSNK1A1 (CK1 alpha 1) Km app 0.3 Z CHUK (IKK alpha) Km app -4.2 A
FES (FPS) Km app 10.4 Z FLT4 (VEGFR3) Km app 3.5 Z MYLK (MLCK) n/a 0.2 L AXL Km app -4.2 Z
ABL1 Km app 10.4 Z GRK4 Km app 3.5 Z MKNK2 (MNK2) n/a 0.2 L PIM2 Km app -4.3 Z
MUSK Km app 10.3 Z FRK (PTK5) Km app 3.4 Z AMPK (A1/B1/G3) n/a 0.2 L PAK1 Km app -4.4 Z
MAPK1 (ERK2) Km app 10.1 Z FYN A n/a 3.3 L MAP3K2 (MEKK2) n/a 0.1 L BMPR1A (ALK3) n/a -4.4 L
BRAF 100 9.9 Z CDK1/cyclin A2 n/a 3.3 L CDK8/cyclin C n/a 0.1 L STK4 (MST1) Km app -4.4 Z
IGF1R Km app 9.7 Z KIT V559D T670I n/a 3.1 L MARK2 Km app 0.1 Z PRKCH (PKC eta) Km app -4.6 Z
MAPK14 (p38 alpha) Km app 9.7 Z SPHK2 10 3.1 A ICK n/a 0.0 L SGKL (SGK3) Km app -4.6 Z
LCK Km app 9.6 Z FGFR3 G697C n/a 3.1 L FGFR2 Km app 0.0 Z PI4KB (PI4K beta) Km app -4.7 A
MAPK11 (p38 beta) Km app 9.5 Z RIPK2 n/a 3.1 L AKT2 (PKB beta) Km app 0.0 Z PRKCE (PKC epsilon) Km app -4.9 Z
SRC Km app 9.5 Z PAK6 Km app 3.0 Z EPHB2 Km app -0.1 Z PHKG1 Km app -5.0 Z
CHEK1 (CHK1) Km app 9.3 Z LYN B Km app 3.0 Z TGFBR2 n/a -0.1 L PDGFRA D842V Km app -5.0 Z
CAMK2D (CaMKII delta) Km app 9.3 Z DAPK2 n/a 2.9 L TEK (Tie2) Km app -0.1 Z PRKG2 (PKG2) Km app -5.1 Z
PLK1 Km app 9.2 Z EPHA4 Km app 2.9 Z AURKA (Aurora A) Km app -0.1 Z TYRO3 (RSE) Km app -5.1 Z
RET Y791F Km app 9.2 Z PIK3CG (p110 gamma) Km app 2.9 A KIT D816H n/a -0.2 L TAOK2 (TAO1) Km app -5.1 Z
FLT3 Km app 9.1 Z HIPK1 (Myak) Km app 2.8 Z KIT N822K n/a -0.2 L EPHB4 Km app -5.3 Z
MAPK10 (JNK3) 100 9.0 Z ADRBK2 (GRK3) Km app 2.8 Z PRKACG (PRKAC gamma) n/a -0.2 L AURKC (Aurora C) Km app -5.4 Z
CSNK2A2 (CK2 alpha 2) Km app 8.7 Z STK17B (DRAK2) n/a 2.7 L TEK (TIE2) Y1108F n/a -0.3 L JAK1 Km app -5.7 Z […]

T1 sequence (Q9UBE8 whole entry): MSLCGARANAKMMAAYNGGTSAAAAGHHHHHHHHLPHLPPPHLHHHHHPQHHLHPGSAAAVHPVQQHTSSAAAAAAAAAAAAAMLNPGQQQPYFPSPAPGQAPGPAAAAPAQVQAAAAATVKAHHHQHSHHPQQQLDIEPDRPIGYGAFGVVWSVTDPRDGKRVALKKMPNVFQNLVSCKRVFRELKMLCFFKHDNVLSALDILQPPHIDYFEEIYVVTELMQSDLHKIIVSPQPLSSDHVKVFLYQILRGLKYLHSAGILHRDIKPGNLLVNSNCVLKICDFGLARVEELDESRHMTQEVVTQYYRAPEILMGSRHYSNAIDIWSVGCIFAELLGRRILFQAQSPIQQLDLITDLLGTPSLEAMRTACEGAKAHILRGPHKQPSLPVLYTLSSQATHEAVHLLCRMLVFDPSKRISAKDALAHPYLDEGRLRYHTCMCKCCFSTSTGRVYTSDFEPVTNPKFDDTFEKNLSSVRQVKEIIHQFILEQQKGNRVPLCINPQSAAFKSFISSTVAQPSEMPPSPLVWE

How did the inhibition at 1 µM turn out when `CN(C(=O)CN1CCOCC1)c1ccc2sc3c(-c4cccc5c(=O)cc(N6CC7CCC(C6)O7)oc45)cccc3c2c1` [NU5455] was run?
Its inhibition at 1 µM is 4.7%.
